Assay results taken from ChEMBL document CHEMBL1134404, “Bisubstrate analogue inhibitors of 6-hydroxymethyl-7,8-dihydropterin pyrophosphokinase: synthesis and biochemical and crystallographic studies” (J Med Chem, 2001).

Test: Compound was tested for the binding affinity towards HPPK Receptor without Mg 2
Parameters: species or system Escherichia coli

Kd: 1.93 µM
SMILES: Nc1nc2ncc(COP(=O)(O)OP(=O)(O)OP(=O)(O)OP(=O)(O)OC[C@H]3O[C@@H](n4cnc5c(N)ncnc54)[C@H](O)[C@@H]3O)nc2c(=O)[nH]1
